Test results reported in patent US20030216426A1 (REGENTS OF THE UNIVERSITY OF CALIFORNIA, priority 2002, published 2003).
pIC50: −log10 of the molar value. Structures can show the parent of a compound that is named as a salt.

How the values were obtained:
[1] = tested on: myeloma cell lines RPM18226; experiment: Apoptosis induction in myeloma cell line; format: cell-based; conditions: RPM18226 myeloma cells
MCF7 = experiment: MTT cell viability assay, MCF7; format: cell-based; conditions: Homo sapiens, Breast, 72 hours exposure
Method: (§1) After 72 hours exposure, the viability of the cells was determined by the rate of conversion of the formazan salt measuring the optical density (OD) at 570 nm (MTT assay).

MDA-231 = experiment: MTT cell viability assay, MDA-231; format: cell-based; conditions: Homo sapiens, MDA-MB-231, Breast, 72 hours exposure
Method: as §1

HCT-116 = experiment: MTT cell viability assay, HCT-116; format: cell-based; conditions: Homo sapiens, Colon, 72 hours exposure
Method: as §1

LNCap = experiment: MTT cell viability assay, LNCap; format: cell-based; conditions: Homo sapiens, Prostate, 72 hours exposure
Method: as §1

SU-DHL1 = experiment: MTT cell viability assay, SU-DHL1; format: cell-based; conditions: Homo sapiens, SU-DHL-1, Lymphoma, 72 hours exposure
Method: as §1

SU-DHL9 = experiment: MTT cell viability assay, SU-DHL9; format: cell-based; conditions: Lymphoma, 72 hours exposure
Method: as §1

10C9 = experiment: MTT cell viability assay, 10C9; format: cell-based; conditions: Lymphoma, 72 hours exposure
Method: as §1

RAJI = experiment: MTT cell viability assay, RAJI; format: cell-based; conditions: Homo sapiens, Lymphoma, 72 hours exposure
Method: as §1

RPMI8226 = experiment: MTT cell viability assay, RPMI8226; format: cell-based; conditions: Homo sapiens, RPMI-8226, Myeloma, 72 hours exposure
Method: as §1

U266 = experiment: MTT cell viability assay, U266; format: cell-based; conditions: Homo sapiens, U-266, Myeloma, 72 hours exposure
Method: as §1

[2] = tested on: Chronic lymphocytic leukemia cells (CLL); experiment: Viability/apoptosis of CLL cells by dye exclusion and flow cytometric analysis; format: cell-based, human; conditions: 10 μM, 48 hours exposure, CLL cells of two patients
Method: (§2) After 48 hours exposure, the number of viable cells was determined by dye exclusion and flow cytometric analysis.

[3] = tested on: control normal lymphocytes (PBL); experiment: Viability/apoptosis of control normal lymphocytes by dye exclusion and flow cytometric analysis; format: cell-based, human; conditions: 10 μM, 48 hours exposure, PBL of a healthy volunteer
Method: as §2

CLL cells = conditions: not feasible in vivo due to toxicity; cited from earlier work
[4] = tested on: peripheral blood T lymphocytes; conditions: cited from earlier work
[5] = cited from earlier work
[6] = cited from earlier work; remark: listed apart in the source
[7] = in vivo; cited from earlier work

## O[C@H](c1cc(C(F)(F)F)nc2c(C(F)(F)F)cccc12)[C@@H]1CCCCN1 (racemic) [(+/−) Mefloquine, (R*, S*)-(±)-alpha-2-piperidinyl-2,8-bis (trifluoromethyl)-4-quinolinemethanol]
[1]
  pIC50: 4.70 to 5.00
MCF7
  IC50: 10 µM
MDA-231
  IC50: 20 µM
HCT-116
  IC50: 6 µM
LNCap
  IC50: 12 µM
SU-DHL1
  IC50: 8 µM
SU-DHL9
  IC50: 7 µM
10C9
  IC50: 9 µM
RAJI
  IC50: 12 µM
RPMI8226
  IC50: 8 µM
U266
  IC50: 11 µM

## O[C@H](c1cc(C(F)(F)F)nc2c(C(F)(F)F)cccc12)[C@@H]1CCCCN1 (relative stereo) [(+/−) Mefloquine, (R*, S*)-(±)-alpha-2-piperidinyl-2,8-bis (trifluoromethyl)-4-quinolinemethanol]
[2]
  induction of apoptosis in CLL cells: potent apoptosis
[3]
  induction of apoptosis in normal lymphocytes: not against normal lymphocytes

## CCN(CCO)CCCC(C)Nc1ccnc2cc(Cl)ccc12 (stereo not shown) [Hydroxychloroquine, hydroxychloroquine]
CLL cells
  concentration active against CLL cells: ≥ 30 µg/mL
[4]
  induction of apoptosis in peripheral blood T lymphocytes: induce apoptosis

## OC(c1cc(C(F)(F)F)nc2c(C(F)(F)F)cccc12)C1CCCCN1 (stereo not shown) [Mefloquine hydrochloride]
[5]; ethanol
  solubility in ethanol: soluble in ethanol
[5]; water
  solubility in water: slightly soluble in water

## O=C(O)c1cc(C(F)(F)F)nc2c(C(F)(F)F)cccc12 [Metabolite, 2,8-bis-trifluoromethyl-4-quinoline carboxylic acid]
[6]; healthy volunteers, 250 mg once weekly for 16 weeks, steady state at week 16, plasma
  Mean (SD) trough concentration, Plasma: 9.80 (5.07) μmol · 1^−1
[6]; healthy volunteers, 250 mg once weekly for 16 weeks, steady state at week 16, serum
  Mean (SD) trough concentration, Serum: 9.44 (5.00) μmol · 1^−1
[6]; healthy volunteers, 250 mg once weekly for 16 weeks, steady state at week 16, whole blood
  Mean (SD) trough concentration, Whole Blood: 4.89 (2.58) μmol · 1^−1
[6]; plasma, text statement referring to Table 1
  accumulation in the plasma: up to 10 μM
[7]
  passage of the blood brain barrier / accumulation in the brain: will not penetrate the brain barrier
